ChEMBL document CHEMBL3352237, “Synthesis and biological evaluation of novel peptide BF2 as an antibacterial agent against clinical isolates of vancomycin-resistant enterococci” (J Med Chem, 2014)
In brackets after ≈: the same amount, converted by molar mass.

Tests used:
Assay type in all cases: functional
Enterococcus [1] = assay: Antibacterial activity against vancomycin-resistant Enterococcus ATCC 51299 after overnight incubation by two-fold serial dilution method
Enterococcus [2] = assay: Antibacterial activity against vancomycin-resistant Enterococcus ATCC 29212 after overnight incubation by two-fold serial dilution method
Enterococcus faecalis [3] = assay: Antibacterial activity against vancomycin-resistant Enterococcus faecalis clinical isolate 5814 after overnight incubation by two-fold serial dilution method
Enterococcus faecalis [4] = assay: Antibacterial activity against vancomycin-resistant Enterococcus faecalis clinical isolate 7670 after overnight incubation by two-fold serial dilution method
Enterococcus faecalis [5] = assay: Antibacterial activity against vancomycin-resistant Enterococcus faecalis clinical isolate 22626 after overnight incubation by two-fold serial dilution method
Enterococcus faecalis [6] = assay: Antibacterial activity against vancomycin-resistant Enterococcus faecalis clinical isolate 7077 after overnight incubation by two-fold serial dilution method
Enterococcus faecalis [7] = assay: Antibacterial activity against vancomycin-resistant Enterococcus faecalis clinical isolate 7079 after overnight incubation by two-fold serial dilution method
Enterococcus faecalis [8] = assay: Antibacterial activity against vancomycin-resistant Enterococcus faecalis clinical isolate 7846 after overnight incubation by two-fold serial dilution method
Enterococcus faecalis [9] = assay: Antibacterial activity against vancomycin-resistant Enterococcus faecalis clinical isolate 21/235 after overnight incubation by two-fold serial dilution method
Enterococcus faecalis [10] = assay: Antibacterial activity against vancomycin-resistant Enterococcus faecalis clinical isolate 5642 after overnight incubation by two-fold serial dilution method
Enterococcus faecalis [11] = assay: Antibacterial activity against vancomycin-resistant Enterococcus faecalis clinical isolate 6093 after overnight incubation by two-fold serial dilution method
Enterococcus faecalis [12] = assay: Antibacterial activity against vancomycin-resistant Enterococcus faecalis clinical isolate 22/203 after overnight incubation by two-fold serial dilution method
Enterococcus faecalis [13] = assay: Antibacterial activity against vancomycin-resistant Enterococcus faecalis clinical isolate 387702 after overnight incubation by two-fold serial dilution method
Enterococcus faecalis [14] = assay: Antibacterial activity against vancomycin-resistant Enterococcus faecalis clinical isolate 27728 after overnight incubation by two-fold serial dilution method
Enterococcus faecalis [15] = assay: Antibacterial activity against vancomycin-resistant Enterococcus faecalis clinical isolate 5648 after overnight incubation by two-fold serial dilution method
Enterococcus faecium [16] = assay: Antibacterial activity against vancomycin-resistant Enterococcus faecium clinical isolate 17301 after overnight incubation by two-fold serial dilution method
Enterococcus faecium [17] = assay: Antibacterial activity against vancomycin-resistant Enterococcus faecium clinical isolate 7/27 after overnight incubation by two-fold serial dilution method
Enterococcus faecium [18] = assay: Antibacterial activity against vancomycin-resistant Enterococcus faecium clinical isolate 23/240 after overnight incubation by two-fold serial dilution method
Enterococcus faecium [19] = assay: Antibacterial activity against vancomycin-resistant Enterococcus faecium clinical isolate 10177 after overnight incubation by two-fold serial dilution method
Enterococcus faecium [20] = assay: Antibacterial activity against vancomycin-resistant Enterococcus faecium clinical isolate 28/211 after overnight incubation by two-fold serial dilution method
Enterococcus faecium [21] = assay: Antibacterial activity against vancomycin-resistant Enterococcus faecium clinical isolate 151495 after overnight incubation by two-fold serial dilution method
Enterococcus faecium [22] = assay: Antibacterial activity against vancomycin-resistant Enterococcus faecium clinical isolate 15/213 after overnight incubation by two-fold serial dilution method
Enterococcus faecium [23] = assay: Antibacterial activity against vancomycin-resistant Enterococcus faecium clinical isolate 14643 after overnight incubation by two-fold serial dilution method
Enterococcus faecium [24] = assay: Antibacterial activity against vancomycin-resistant Enterococcus faecium clinical isolate 5396 after overnight incubation by two-fold serial dilution method
Enterococcus faecium [25] = assay: Antibacterial activity against vancomycin-resistant Enterococcus faecium clinical isolate 31176 after overnight incubation by two-fold serial dilution method
Enterococcus faecium [26] = assay: Antibacterial activity against vancomycin-resistant Enterococcus faecium clinical isolate 31386 after overnight incubation by two-fold serial dilution method
Enterococcus faecium [27] = assay: Antibacterial activity against vancomycin-resistant Enterococcus faecium clinical isolate 3864 after overnight incubation by two-fold serial dilution method
Enterococcus faecium [28] = assay: Antibacterial activity against vancomycin-resistant Enterococcus faecium clinical isolate 27/16917 after overnight incubation by two-fold serial dilution method; conditions: isolate 27/1691
Enterococcus faecium [29] = assay: Antibacterial activity against vancomycin-resistant Enterococcus faecium clinical isolate 12875 after overnight incubation by two-fold serial dilution method
Enterococcus faecium [30] = assay: Antibacterial activity against vancomycin-resistant Enterococcus faecium clinical isolate 27/221 after overnight incubation by two-fold serial dilution method
Enterococcus faecium [31] = assay: Antibacterial activity against vancomycin-resistant Enterococcus faecium clinical isolate 8/224 after overnight incubation by two-fold serial dilution method
Enterococcus faecium [32] = assay: Antibacterial activity against vancomycin-resistant Enterococcus faecium clinical isolate 147969 after overnight incubation by two-fold serial dilution method
Enterococcus faecium [33] = assay: Antibacterial activity against vancomycin-resistant Enterococcus faecium clinical isolate 29/203 after overnight incubation by two-fold serial dilution method
Enterococcus faecium [34] = assay: Antibacterial activity against vancomycin-resistant Enterococcus faecium clinical isolate 30/48 after overnight incubation by two-fold serial dilution method
Enterococcus faecium [35] = assay: Antibacterial activity against vancomycin-resistant Enterococcus faecium clinical isolate 16475 after overnight incubation by two-fold serial dilution method
Enterococcus faecium [36] = assay: Antibacterial activity against vancomycin-resistant Enterococcus faecium clinical isolate 16115 after overnight incubation by two-fold serial dilution method
Enterococcus faecium [37] = assay: Antibacterial activity against vancomycin-resistant Enterococcus faecium clinical isolate 5484 after overnight incubation by two-fold serial dilution method
Enterococcus faecium [38] = assay: Antibacterial activity against vancomycin-resistant Enterococcus faecium clinical isolate 12/266 after overnight incubation by two-fold serial dilution method
Enterococcus faecium [39] = assay: Antibacterial activity against vancomycin-resistant Enterococcus faecium clinical isolate 6/22 after overnight incubation by two-fold serial dilution method
Enterococcus faecium [40] = assay: Antibacterial activity against vancomycin-resistant Enterococcus faecium clinical isolate 18906 after overnight incubation by two-fold serial dilution method
Enterococcus faecium [41] = assay: Antibacterial activity against vancomycin-resistant Enterococcus faecium clinical isolate 13246 after overnight incubation by two-fold serial dilution method

Compound: H-RWRLLLLKKF-OH
- MIC (Enterococcus [1]): 25 µg/mL
- MIC (Enterococcus [2]): 25 µg/mL
- MIC (Enterococcus faecalis [3]): 25 µg/mL
- MIC (Enterococcus faecalis [4]): 25 µg/mL
- MIC (Enterococcus faecalis [5]): 25 µg/mL
- MIC (Enterococcus faecalis [6]): 25 µg/mL
- MIC (Enterococcus faecalis [7]): 25 µg/mL
- MIC (Enterococcus faecalis [8]): 25 µg/mL
- MIC (Enterococcus faecalis [9]): 25 µg/mL
- MIC (Enterococcus faecalis [10]): 25 µg/mL
- MIC (Enterococcus faecalis [11]): 25 µg/mL
- MIC (Enterococcus faecalis [12]): 25 µg/mL
- MIC (Enterococcus faecalis [13]): 25 µg/mL
- MIC (Enterococcus faecalis [14]): 25 µg/mL
- MIC (Enterococcus faecalis [15]): 25 µg/mL
- MIC (Enterococcus faecium [16]): 25 µg/mL
- MIC (Enterococcus faecium [17]): 25 µg/mL
- MIC (Enterococcus faecium [18]): 25 µg/mL
- MIC (Enterococcus faecium [19]): 25 µg/mL
- MIC (Enterococcus faecium [20]): 25 µg/mL
- MIC (Enterococcus faecium [21]): 25 µg/mL
- MIC (Enterococcus faecium [22]): 25 µg/mL
- MIC (Enterococcus faecium [23]): 25 µg/mL
- MIC (Enterococcus faecium [24]): 25 µg/mL
- MIC (Enterococcus faecium [25]): 25 µg/mL
- MIC (Enterococcus faecium [26]): 25 µg/mL
- MIC (Enterococcus faecium [27]): 25 µg/mL
- MIC (Enterococcus faecium [28]): 25 µg/mL
- MIC (Enterococcus faecium [29]): 25 µg/mL
- MIC (Enterococcus faecium [30]): 25 µg/mL
- MIC (Enterococcus faecium [31]): 25 µg/mL
- MIC (Enterococcus faecium [32]): 25 µg/mL
- MIC (Enterococcus faecium [33]): 25 µg/mL
- MIC (Enterococcus faecium [34]): 25 µg/mL
- MIC (Enterococcus faecium [35]): 25 µg/mL
- MIC (Enterococcus faecium [36]): 25 µg/mL
- MIC (Enterococcus faecium [37]): 25 µg/mL
- MIC (Enterococcus faecium [38]): 25 µg/mL
- MIC (Enterococcus faecium [39]): 25 µg/mL
- MIC (Enterococcus faecium [40]): 25 µg/mL
- MIC (Enterococcus faecium [41]): 25 µg/mL

Compound: H-HWRLLLLKKH-OH
- MIC (Enterococcus [1]): 25 µg/mL
- MIC (Enterococcus [2]): 25 µg/mL
- MIC (Enterococcus faecalis [3]): 25 µg/mL
- MIC (Enterococcus faecalis [4]): 25 µg/mL
- MIC (Enterococcus faecalis [5]): 25 µg/mL
- MIC (Enterococcus faecalis [6]): 25 µg/mL
- MIC (Enterococcus faecalis [7]): 25 µg/mL
- MIC (Enterococcus faecalis [8]): 25 µg/mL
- MIC (Enterococcus faecalis [9]): 25 µg/mL
- MIC (Enterococcus faecalis [10]): 25 µg/mL
- MIC (Enterococcus faecalis [11]): 25 µg/mL
- MIC (Enterococcus faecalis [12]): 25 µg/mL
- MIC (Enterococcus faecalis [13]): 25 µg/mL
- MIC (Enterococcus faecalis [14]): 25 µg/mL
- MIC (Enterococcus faecalis [15]): 25 µg/mL
- MIC (Enterococcus faecium [16]): 25 µg/mL
- MIC (Enterococcus faecium [17]): 25 µg/mL
- MIC (Enterococcus faecium [18]): 25 µg/mL
- MIC (Enterococcus faecium [19]): 25 µg/mL
- MIC (Enterococcus faecium [20]): 25 µg/mL
- MIC (Enterococcus faecium [21]): 25 µg/mL
- MIC (Enterococcus faecium [22]): 25 µg/mL
- MIC (Enterococcus faecium [23]): 25 µg/mL
- MIC (Enterococcus faecium [24]): 25 µg/mL
- MIC (Enterococcus faecium [25]): 25 µg/mL
- MIC (Enterococcus faecium [26]): 25 µg/mL
- MIC (Enterococcus faecium [27]): 25 µg/mL
- MIC (Enterococcus faecium [28]): 25 µg/mL
- MIC (Enterococcus faecium [29]): 25 µg/mL
- MIC (Enterococcus faecium [30]): 25 µg/mL
- MIC (Enterococcus faecium [31]): 25 µg/mL
- MIC (Enterococcus faecium [32]): 25 µg/mL
- MIC (Enterococcus faecium [33]): 25 µg/mL
- MIC (Enterococcus faecium [34]): 25 µg/mL
- MIC (Enterococcus faecium [35]): 25 µg/mL
- MIC (Enterococcus faecium [36]): 25 µg/mL
- MIC (Enterococcus faecium [37]): 25 µg/mL
- MIC (Enterococcus faecium [38]): 25 µg/mL
- MIC (Enterococcus faecium [39]): 25 µg/mL
- MIC (Enterococcus faecium [40]): 25 µg/mL
- MIC (Enterococcus faecium [41]): 25 µg/mL

Compound: CN[C@H](CC(C)C)C(=O)N[C@H]1C(=O)N[C@@H](CC(N)=O)C(=O)N[C@H]2C(=O)N[C@H]3C(=O)N[C@H](C(=O)N[C@H](C(=O)O)c4cc(O)cc(O)c4-c4cc3ccc4O)[C@H](O)c3ccc(c(Cl)c3)Oc3cc2cc(c3O[C@@H]2O[C@H](CO)[C@@H](O)[C@H](O)[C@H]2O[C@H]2C[C@](C)(N)[C@H](O)[C@H](C)O2)Oc2ccc(cc2Cl)[C@H]1O [VANCOMYCIN]
- MIC (Enterococcus [1]): 64 µg/mL (≈ 44.2 µM)
- MIC (Enterococcus [2]): 2 µg/mL (≈ 1.38 µM)
- MIC (Enterococcus faecium [18]): 64 µg/mL (≈ 44.2 µM)
- MIC (Enterococcus faecium [19]): 64 µg/mL (≈ 44.2 µM)
- MIC (Enterococcus faecium [20]): 64 µg/mL (≈ 44.2 µM)
- MIC (Enterococcus faecium [24]): 64 µg/mL (≈ 44.2 µM)
- MIC (Enterococcus faecium [25]): 64 µg/mL (≈ 44.2 µM)
- MIC (Enterococcus faecium [26]): 64 µg/mL (≈ 44.2 µM)
- MIC (Enterococcus faecium [27]): 64 µg/mL (≈ 44.2 µM)
- MIC (Enterococcus faecium [28]): 64 µg/mL (≈ 44.2 µM)
- MIC (Enterococcus faecium [29]): 64 µg/mL (≈ 44.2 µM)
- MIC (Enterococcus faecium [30]): 64 µg/mL (≈ 44.2 µM)
- MIC (Enterococcus faecium [31]): 64 µg/mL (≈ 44.2 µM)
- MIC (Enterococcus faecium [32]): 64 µg/mL (≈ 44.2 µM)
- MIC (Enterococcus faecium [34]): 64 µg/mL (≈ 44.2 µM)
- MIC (Enterococcus faecium [37]): 64 µg/mL (≈ 44.2 µM)
- MIC (Enterococcus faecium [39]): 64 µg/mL (≈ 44.2 µM)
- MIC (Enterococcus faecium [40]): 64 µg/mL (≈ 44.2 µM)
